In ChEMBL document CHEMBL1201862, “PubChem BioAssay data set” (2004):
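Five concentrations, 48 hours, 96-well plates. Here, GI50 denotes the concentration required for 50% inhibition of growth.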 The source made the active and inactive calls. Cut-off read from the data, not from the text of the source: active = GI50 up to about 1.1 µM and inactive = higher. *1 amine or outer side, *2 acyl side, *3 side chain or, on linkers, in order; H or OH if unused. Where a SMILES comes first, the peptide text is derived from it. Bridges are numbered along the chain shown (N, C = ends). [ ]: non-standard residue; d: D form. The star is where a group is joined. X56 = CC(C)C(C)C(C(=O)[*:2])N(C)[*:1]; Picolinoyl(3-OH) = O=C(c1ncccc1O)*; NMePhg = CN[CH](C(=O)O)c1ccccc1; Hyp = O=C(O)[CH]1C[CH](O)CN1; Sar = CNCC(=O)O

Experiments:
Assay in all cases: DTP human tumour cell line panel, 48 h
Malme-3M = tested on: Malme-3M
MOLT-4 = tested on: MOLT-4
NCI-H522 = tested on: NCI-H522
SF-295 = tested on: SF-295
TK-10 = tested on: TK-10
RXF 393 = tested on: RXF 393
HOP-62 = tested on: HOP-62
HCT-116 = tested on: HCT-116
SK-MEL-2 = tested on: SK-MEL-2
U-251 = tested on: U-251
SNB-75 = tested on: SNB-75
A549 = tested on: A549
CCRF-CEM = tested on: CCRF-CEM
PC-3 = tested on: PC-3
MDA-MB-435 = tested on: MDA-MB-435
HCT-15 = tested on: HCT-15
SR = tested on: SR
MCF7 = tested on: MCF7
UACC-62 = tested on: UACC-62
A498 = tested on: A498

SMILES	GI50 (Malme-3M)	GI50 (MOLT-4)	GI50 (NCI-H522)	GI50 (SF-295)	GI50 (TK-10)	GI50 (RXF 393)	GI50 (HOP-62)	GI50 (HCT-116)	GI50 (SK-MEL-2)	GI50 (U-251)	GI50 (SNB-75)	GI50 (A549)	GI50 (CCRF-CEM)	GI50 (PC-3)	GI50 (MDA-MB-435)	GI50 (HCT-15)	GI50 (SR)	GI50 (MCF7)	GI50 (UACC-62)	GI50 (A498)
COc1ccc(C2=NN(C(=O)c3cccnc3)C(O)(c3cc(F)c(Cl)cc3Cl)C2)cc1OC (stereo not drawn)	22.6 µM (inactive)	8.97 µM (inactive)	13.8 µM (inactive)	15.5 µM (inactive)	30.4 µM (inactive)	15.5 µM (inactive)	19 µM (inactive)	14.8 µM (inactive)	14.8 µM (inactive)	13.8 µM (inactive)	23.5 µM (inactive)	20.4 µM (inactive)	11.4 µM (inactive)	12.6 µM (inactive)	15.2 µM (inactive)	14.8 µM	7.28 µM (inactive)			
CSCC[C@@H]1C(=O)N(C)[C@H](C(C)(C)C)N1C(=O)c1ccccc1	> 100 µM (inactive)	> 100 µM (inactive)	> 100 µM (inactive)	> 100 µM (inactive)		> 100 µM (inactive)	> 100 µM (inactive)	> 100 µM (inactive)	> 100 µM (inactive)	> 100 µM (inactive)	> 100 µM (inactive)	> 100 µM (inactive)	> 100 µM (inactive)			> 100 µM		> 100 µM (inactive)	> 100 µM (inactive)	> 100 µM (inactive)
NC1=NN(c2ccccc2)C(=O)C1C(=O)C(=O)Nc1ccc(Cl)cc1 (stereo not drawn)	> 100 µM (inactive)	> 100 µM (inactive)	> 100 µM (inactive)	> 100 µM (inactive)	> 100 µM (inactive)	> 100 µM (inactive)	> 100 µM (inactive)	> 100 µM (inactive)	> 100 µM (inactive)	> 100 µM (inactive)	> 100 µM (inactive)	> 100 µM (inactive)	> 100 µM (inactive)			> 100 µM	> 100 µM (inactive)		> 100 µM (inactive)	> 100 µM (inactive)
CCCSCC(P(=O)(O)O)P(=O)(O)O.NC1CCCCC1	> 100 µM (inactive)	> 100 µM (inactive)	> 100 µM (inactive)	> 100 µM (inactive)		> 100 µM (inactive)	> 100 µM (inactive)	> 100 µM (inactive)	> 100 µM (inactive)	> 100 µM (inactive)	> 100 µM (inactive)	> 100 µM (inactive)	> 100 µM (inactive)			> 100 µM		> 100 µM (inactive)	> 100 µM (inactive)	8.59 µM (inactive)
CC(C)CC1NC(=O)C(NC(=O)c2ncccc2O)C(C)OC(=O)C(c2ccccc2)N(C)C(=O)C(C)NC(=O)C(C(C)C(C)C)N(C)C(=O)CN(C)C(=O)C2CC(O)CN2C1=O (stereo not drawn) ({Picolinoyl(3-OH)}-TL[Hyp][Sar][X56]A[NMePhg]; ester 1-C; configuration not given here)	55.5 µM (inactive)	43.2 µM (inactive)	124 µM (inactive)	85.7 µM (inactive)		> 125 µM (inactive)	> 125 µM (inactive)	26.9 µM (inactive)	38.7 µM (inactive)	40.8 µM (inactive)	36.7 µM (inactive)	52.6 µM (inactive)	60.5 µM (inactive)			105 µM		13.7 µM (inactive)	45.1 µM (inactive)	> 107 µM (inactive)
CCCCCCCC/C=C/CCCCCCCC(=O)N(O)C1CC(n2cc(C)c(=O)[nH]c2=O)OC1CO (stereo not drawn)	9.71 µM (inactive)	4.41 µM (inactive)	7.76 µM (inactive)	8.28 µM (inactive)	10.8 µM (inactive)	3.77 µM (inactive)	6.25 µM (inactive)	8.53 µM (inactive)	13.7 µM (inactive)	4.89 µM (inactive)	12.1 µM (inactive)	19 µM (inactive)	4.22 µM (inactive)			4.67 µM	3.27 µM (inactive)		2.64 µM (inactive)	18.3 µM (inactive)
CC1=C[C@]2(O)C(=O)[C@H](C)C[C@H]3[C@@H](CC[C@@](C)(O)/C=C\2C1=O)C3(C)C	22.8 µM (inactive)	17.9 µM (inactive)	13.7 µM (inactive)	24.5 µM (inactive)	32 µM (inactive)	15.4 µM (inactive)	> 49.8 µM (inactive)	17.2 µM (inactive)	17.9 µM (inactive)	21.7 µM (inactive)	33.3 µM (inactive)	35.5 µM (inactive)	24.8 µM (inactive)			17 µM	16 µM (inactive)		16 µM (inactive)	27.4 µM (inactive)
COc1cccc2c1C(=O)c1c(O)c3c(c(O)c1C2=O)C[C@@](O)(C(C)=O)CC3S(=O)(=O)O (stereo partly drawn)	> 100 µM (inactive)	> 100 µM (inactive)	> 100 µM (inactive)	> 100 µM (inactive)	> 100 µM (inactive)	> 100 µM (inactive)	> 100 µM (inactive)	> 100 µM (inactive)	> 100 µM (inactive)	> 100 µM (inactive)	> 50.5 µM (inactive)	> 100 µM (inactive)	> 100 µM (inactive)			> 100 µM	> 84.1 µM (inactive)		> 100 µM (inactive)	> 100 µM (inactive)
